Values joined by “and” are separate entries in the source; they are usually repeats but may differ in a detail not shown here. Equal values may be shown once. Read-outs that look alike come from different tables or passages of the source.
Columns and labels:
[1] = molecular target: all target kinases identified with the Kinobeads technology; assay: Kinobeads competition pulldown in AsPC-1 lysate, all kinases; assay type: binding, human; conditions: all targets other than ATR and ACVR2; read-out: KDapp of all other targets
Protocol: This was followed by incubation with Kinobeads ε (17.5 µl of settled beads) for 30 min at 4 °C to enrich kinases. […] Enriched proteins were reduced with 50 mM DTT in 8 M urea, 40 mM Tris-HCl, pH 7.4 for 30 min at room temperature, and alkylated with 55 mM chloroacetamide. After reducing the urea concentration to 1–2 M, proteins were digested with trypsin at 37 °C for 16 h. Subsequently, eluted peptides were desalted using SepPak tC18 µElution plates (Waters), freeze-dried by vacuum centrifugation, and stored at −20 °C.
For LC-MS/MS, dried peptides were reconstituted in 0.1% formic acid and analyzed on a Dionex Ultimate3000 nano HPLC (Thermo Scientific) coupled to an Orbitrap Fusion Tribrid mass spectrometer (Thermo Scientific), which was run in data-dependent mode. […]
Oxidized methionine and N-terminal acetylation were set as variable modification, and cysteine carbamidomethylation was set as fixed modification. Label-free quantification (LFQ) and match-between-runs were enabled. […]
Proteins were filtered by potential contaminants, reversed hits and proteins identified only by site. Residual binding of proteins was calculated from LFQ intensities as the ratio between drug doses and vehicle. […] Only kinases quantified with at least 4 unique peptides in the vehicle experiment were considered. […]

PDO UME053 = assay: PDO viability assay (CellTiter-Glo, 72 h); assay type: cell-based, human; design: Curve top / Curve bottom: scale not given here;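 as to Curve top: fraction of plate-wise median vehicle signal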
Protocol: Primary patient-derived PDAC organoid (PDO) experiments were performed in the laboratories of Prof. Maximilian Reichert (University Hospital of the TU Munich, Germany, PDO set 1: B250, B535, B678) and Prof. Jens T. Siveke (University Hospital Essen, Germany; PDO set 2: UME008, UME012, UME051, UME053, UME060, UME061). PDOs were generated from surgical resection, EUS-guided fine needle biopsy (EUS-FNB), or ascites (Appendix Table S2). Surgical specimens were first minced with a sterile scalpel and subsequently washed with Anti-Anti solution and washing medium (PDO set 1), or vice versa (PDO set 2; Appendix Table S3). Biopsy samples were directly washed with an Anti-Anti solution and washing medium. Samples were digested using 1 ml of digestion medium at 37 °C while shaking, and the enzymatic reaction was stopped by adding 15 ml of washing medium (Appendix Table S3). If samples of PDO set 1 were blood-stained, tissue pellets were first incubated with ACK lysing buffer/red blood cells lysis buffer (Thermo Fisher Scientific) for 5 min and then digested using TrypLE (Thermo Fisher Scientific). The reversed procedure was applied for blood-stained samples of PDO set 2. For PDO generation from ascites, the material was first spun down at 500 × g for 5 min. Then, washing medium was added and the suspension was centrifuged at 300 × g for 5 min. If the pellet was blood-stained, ACK lysis buffer was added and incubated at room temperature.
For viability assays in PDOs, confluent organoids were removed from medium, and Matrigel was dissolved by adding 200 μl (PDO set 1) or 2 ml (PDO set 2) of Cell Recovery Solution (Corning), and additionally 500 μl of DPBS (PDO set 1 only). Samples were transferred into a falcon and incubated on ice for 30 min, followed by centrifugation at 300 × g at 4 °C for 5 min (after adding 10 ml washing medium for PDO set 2). Subsequently, TrypLE Express Enzyme (Thermo Fisher) was added to cell pellets and incubated for 2 × 5 min at 37 °C. The enzymatic reaction was quenched by DPBS (PDO set 1) or washing medium (PDO set 2), and samples were washed by centrifugation at 300 × g at 4 °C for 5 min. Five hundred cells/well were seeded in 384-well plates (Corning) in 50 μl of PDO medium containing 10% Matrigel. To allow PDO generation, cells were incubated for 4 days at 37 °C and 5% CO2. […] Experiments were pipetted manually (PDO set 1) or automatically using a TECAN D300e Digital Dispenser (HP; PDO set 2). Treatments were performed in eight replicates, except for PDO PPES045 (quadruplicates). After 72 h, cell viability was measured using the CellTiter-Glo Luminescent Cell Viability Assay (Promega) diluted 1:5 in the final volume of the well. After 20 min of incubation at room temperature under gentle shaking, the acquisition was performed in the microplate reader VantaSTAR (BMG Labtech) using 3000 gain for the amplification measurement of a detected signal (PDO set 1) or the Spark Multimode microplate reader (TECAN) at 800 ms integration time (PDO set 2).

TBKBP1 = conditions: TBKBP1, 5 cell line mix lysate, Kinobeads ε, ref Reinecke et al. (2023), cited from earlier work
PKN3 = system: PKN3; design: method as in Reinecke et al. (2023); conditions: PKN3, 5 cell line mix lysate, Kinobeads ε, ref Reinecke et al. (2023), cited from earlier work
[2] = PDO UME053, GEM + Elimusertib (ATRi) dose1, per replicate
[3] = PDO UME053, GEM + Elimusertib (ATRi) dose2, per replicate
[4] = PDO UME053, GEM + Elimusertib (ATRi) dose3, per replicate
[5] = PDO UME053, GEM alone, per replicate
[6] = PDO UME053, experiment GEM (GEM alone), curve fit

With `CNCc1ccc(-c2cc(-c3nc(-c4ccc(S(=O)(=O)C(C)C)cc4)cnc3N)on2)cc1` [Berzosertib] the Kd [1] was > 10 nM.

With `Nc1ccn([C@@H]2O[C@H](CO)[C@@H](O)C2(F)F)c(=O)n1` [GEM, Gemcitabine] the EC50 (PDO UME053; Homo sapiens, PDO UME053, GEM + Elimusertib (ATRi) dose1, mean of replicates, read-out: EC50 mean) was 3.76 nM, the EC50 (PDO UME053; Homo sapiens, PDO UME053, GEM + Elimusertib (ATRi) dose1, per replicate, read-out: EC50) was 4.76 nM and the EC50 (PDO UME053; Homo sapiens, PDO UME053, GEM + Elimusertib (ATRi) dose1, per replicate, read-out: pEC50 (converted)) was 4.79 nM. For the same molecule, the EC50 (PDO UME053; Homo sapiens, PDO UME053, GEM + Elimusertib (ATRi) dose2, mean of replicates, read-out: EC50 mean) was 2.48 nM, the EC50 (PDO UME053; Homo sapiens, PDO UME053, GEM + Elimusertib (ATRi) dose3, mean of replicates, read-out: EC50 mean) was 2.58 nM and the EC50 (PDO UME053; Homo sapiens, PDO UME053, GEM alone, mean of replicates, read-out: EC50 mean) was 3.83 nM. It also gave an EC50 (PDO UME053; Homo sapiens, PDO UME053, GEM alone, per replicate, read-out: EC50) of 4.9 nM, an EC50 (PDO UME053; Homo sapiens, PDO UME053, GEM alone, per replicate, read-out: pEC50 (converted)) of 4.9 nM and an EC50 (PDO UME053; Homo sapiens, PDO UME053, GEM alone, read-out: EC50 mean) of 3.8 nM. The EC50 (PDO UME053; Homo sapiens, PDO UME053, experiment GEM (GEM alone), mean of replicates, read-out: EC50 mean) was 3.83 nM, the EC50 (PDO UME053; Homo sapiens, PDO UME053, experiment GEM (GEM alone), single replicates, read-out: pEC50 (converted)) was 5.75 nM and the EC50 (PDO UME053; Homo sapiens, SET-2, PDO UME053, PDO set 2, experiment GEM (GEM alone), single replicates, read-out: EC50) was 5.76 nM. For the same molecule, the Curve bottom (PDO UME053; [2]) was 4.76 and 3.51 and 3.42 and 4.59 and 3.68 and 3.05, the Curve slope (PDO UME053; [2]) was -0.0232 and -0.0231 and -0.0214 and -0.0351 and 0.00541 and -0.00734 and the Curve top (PDO UME053; [2]) was 1.03 and 0.94. For the same molecule, the pEC50 (PDO UME053; [2]) was 8.45 and 8.47 and 8.34 and 8.43 and 8.52, the EC50 (PDO UME053; PDO UME053, GEM + Elimusertib (ATRi) dose1, per replicate, read-out: EC50) was 3.51 nM and 3.42 nM and 4.59 nM and 3.68 nM and 3.05 nM and the Curve bottom (PDO UME053; [3]) was 3.13 and 3.73 and 2.51 and 1.19 and 1.27. For the same molecule, the Curve slope (PDO UME053; [3]) was -0.0242 and -0.026 and -0.0173 and -0.00205 and -0.00262, the Curve top (PDO UME053; [3]) was 1.01 and 0.93 and 0.97 and 0.99 and the pEC50 (PDO UME053; [3]) was 8.50 and 8.43 and 8.60 and 8.92 and 8.90. The EC50 (PDO UME053; PDO UME053, GEM + Elimusertib (ATRi) dose2, per replicate, read-out: EC50) was 3.13 nM and 3.73 nM and 2.51 nM and 1.19 nM and 1.27 nM, the Curve bottom (PDO UME053; [4]) was 2.72 and 2.86 and 2.18 and 1.18 and 1.85 and the Curve slope (PDO UME053; [4]) was -0.02 and -0.027 and -0.013 and -0.0115. The Curve top (PDO UME053; [4]) was 0.85 and 0.95 and 0.90, the pEC50 (PDO UME053; [4]) was 8.56 and 8.54 and 8.66 and 8.93 and 8.73 and the EC50 (PDO UME053; PDO UME053, GEM + Elimusertib (ATRi) dose3, per replicate, read-out: EC50) was 2.72 nM and 2.86 nM and 2.18 nM and 1.18 nM and 1.85 nM. The Curve bottom (PDO UME053; [5]) was 4.90 and 3.43 and 2.87 and 2.77 and 4.39 and 2.68, the Curve slope (PDO UME053; [5]) was -0.0183 and 6.71e-5 and 0.00446 and -0.00144 and 0.00242 and 0.00525 and the Curve top (PDO UME053; [5]) was 1.30 and 1.34. The pEC50 (PDO UME053; [5]) was 8.46 and 8.54 and 8.56 and 8.36 and 8.57, the EC50 (PDO UME053; PDO UME053, GEM alone, per replicate, read-out: EC50) was 3.43 nM and 2.87 nM and 2.77 nM and 4.39 nM and 2.68 nM and the EC50 (PDO UME053; PDO UME053, PDO set 2, experiment GEM (GEM alone), single replicates, read-out: EC50) was 3.82 nM. For the same molecule, the Curve bottom (PDO UME053; [6]) was 5.76 and 3.82, the Curve top (PDO UME053; [6]) was 0.62 and the pEC50 (PDO UME053; PDO UME053, experiment GEM (GEM alone), single replicates) was 8.42.

For `COc1cc(N2CCC(N3CCN(C)CC3)CC2)ccc1Nc1ncc(Cl)c(Nc2ccccc2P(C)(C)=O)n1` [Brigatinib], the EC50 (TBKBP1) is listed as 940 nM, the pKDapp (TBKBP1) is listed as 6.13 and the Kd (TBKBP1; read-out: KDapp) is listed as 746 nM. The EC50 (PKN3) was 38500 nM, the pKDapp (PKN3) was 4.41 and the Kd (PKN3; read-out: KDapp) was 38500 nM.

— publication PMC11876601 (Molecular Systems Biology, 2025)
